Patent US20180305332A1, “Bispiperidinyl Derivatives as Liver X Receptor Beta Agonists, Compositions, and Their Use” (Merck Sharp & Dohme Corp., priority 2015, published 2018)

Key:
[1] = biological target: T1, GST tagged LXRbeta LBD (ligand binding domain) (Homo sapiens, UniProt P55055); experiment: LanthaScreen TR-FRET Liver X Receptor Coactivator Assay, LXR beta-LBD; format: biochemical; conditions: relative to reference T0901317; for EC50: Inflection Point (potency), co-activator recruitment, read-out: LXR beta IP; for Emax: activity at max dose (efficacy), read-out: LXR beta act @ max dose (%)
T1 construct: purchased Invitrogen pv4658.pps
T1 sequence (P55055 222-460 limits assumed): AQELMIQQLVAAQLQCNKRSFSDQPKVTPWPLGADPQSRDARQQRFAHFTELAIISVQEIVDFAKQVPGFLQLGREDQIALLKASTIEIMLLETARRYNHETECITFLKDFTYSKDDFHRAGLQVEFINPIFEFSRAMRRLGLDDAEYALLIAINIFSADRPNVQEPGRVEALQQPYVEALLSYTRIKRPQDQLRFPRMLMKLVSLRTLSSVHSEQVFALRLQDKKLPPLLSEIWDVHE
Procedure, shortened: (§1)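 Coactivator-recruitment TR-FRET format: GST-LBD, fluorescein-labelled coactivator peptide, Tb-conjugated anti-GST antibody, incubated at RT. Potency and efficacy scaled to T0901317.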

[2] = biological target: T2, GST tagged LXRalpha LBD (ligand binding domain) (Homo sapiens, UniProt Q13133); experiment: LanthaScreen TR-FRET Liver X Receptor Coactivator Assay, LXR alpha-LBD; format: biochemical; conditions: relative to reference T0901317; for EC50 / LXR alpha IP (nM): Inflection Point (potency), co-activator recruitment; for EC50: read-out: LXR alpha IP; for Emax: activity at max dose (efficacy), read-out: LXR alpha act @ max dose (%)
T2 construct: purchased Invitrogen pv4655
T2 sequence (Q13133 209-447 limits assumed): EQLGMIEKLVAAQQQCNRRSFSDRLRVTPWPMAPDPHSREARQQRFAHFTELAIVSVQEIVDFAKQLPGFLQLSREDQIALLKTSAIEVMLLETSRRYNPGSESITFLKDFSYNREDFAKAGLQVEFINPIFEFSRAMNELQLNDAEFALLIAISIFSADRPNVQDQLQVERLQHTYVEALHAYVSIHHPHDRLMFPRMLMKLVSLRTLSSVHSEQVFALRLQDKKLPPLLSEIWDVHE
Procedure, shortened: as §1

Structure (SMILES) | EC50 [1] [nM] | Emax [1] [%] | EC50 [2] [nM] | Emax [2] [%] | LXR alpha IP (nM) [2]
CS(=O)(=O)c1ccc(N2CCC(C3CCN(C(=O)[C@](O)(c4ccccc4)C(F)(F)F)CC3)CC2)cc1Cl [Example D-7, (2R)-3-{1′-[3-chloro-4-(methylsulfonyl)phenyl]-4,4′-bipiperidin-1-yl}-1,1,1-trifluoro-3-oxo-2-phenylpropan-2-ol] | 180 | 82 | 413 | 20 | –
CC(C)(C(=O)N1CCC(C2CCN(c3cccc(S(C)(=O)=O)c3)CC2)CC1)c1ccccc1 [Example D-8, 1-(2-methyl-2-phenylpropanoyl)-1′-[3-(methylsulfonyl)phenyl]-4,4′-bipiperidine] | 185 | 134 | 2490 | 64 | –
CC(C)(C)OC(=O)N1CCC(C2CCN(c3ccc(S(C)(=O)=O)c(Cl)c3)CC2)CC1 [Example D-9, tert-butyl 1′-[3-chloro-4-(methylsulfonyl)phenyl]-4,4′-bipiperidine-1-carboxylate] | 124 | 81 | 822 | 41 | –
COC(=O)c1ccc(N2CCC(C3CCN(C(=O)OC(C)(C)C)CC3)CC2)nc1Cl [Example E-1, tert-butyl 1′-[6-chloro-5-(methoxycarbonyl)pyridin-2-yl]-4,4′-bipiperidine-1-carboxylate] | 237 | 36 | 857 | 29 | –
COC(=O)c1ccc(N2CCC(C3CCN(C(=O)c4c(F)cccc4F)CC3)CC2)cc1Cl [Example E-2, methyl 2-chloro-4-{1′-[(2,6-difluorophenyl)carbonyl]-4,4′-bipiperidin-1-yl}benzoate] | 153 | 25 | 58 | 26 | –
CC(C)C(O)(C(=O)N1CCC(C2CCN(c3ccc(C(=O)N4CC(F)(F)C4)c(Cl)c3)CC2)CC1)C(F)(F)F (centres unmarked) [Example E-3, 2-[(1′-{3-chloro-4-[(3,3-difluoroazetidin-1-yl)carbonyl]phenyl}-4,4′-bipiperidin-1-yl)carbonyl]-1,1,1-trifluoro-3-methylbutan-2-ol] | 297 | 81 | 127 | 30 | –
CC(C)C(O)(C(=O)N1CCC(C2CCN(c3ccc(C(N)=O)c(Cl)c3)CC2)CC1)C(F)(F)F (centres unmarked) [Example E-4, 2-chloro-4-{1′-[2-hydroxy-3-methyl-2-(trifluoromethyl)butanoyl]-4,4′-bipiperidin-1-yl}benzamide] | 51 | 94 | 180 | 67 | –
CNC(=O)c1ccc(N2CCC(C3CCN(C(=O)C(O)(C(C)C)C(F)(F)F)CC3)CC2)cc1Cl (centres unmarked) [Example E-5, 2-chloro-4-{1′-[2-hydroxy-3-methyl-2-(trifluoromethyl)butanoyl]-4,4′-bipiperidin-1-yl}-N-methylbenzamide] | 111 | 123 | 1070 | 56 | –
CC(C)N(C)C(=O)c1ccc(N2CCC(C3CCN(C(=O)C(O)(C(C)C)C(F)(F)F)CC3)CC2)cc1Cl (centres unmarked) [Example E-6, 2-chloro-4-{1′-[2-hydroxy-3-methyl-2-(trifluoromethyl)butanoyl]-4,4′-bipiperidin-1-yl}-N-methyl-N-(1-methylethyl)benzamide] | 111 | 101 | 761 | 53 | –
CCN(CC)C(=O)c1ccc(N2CCC(C3CCN(C(=O)C(O)(C(C)C)C(F)(F)F)CC3)CC2)cc1Cl (centres unmarked) [Example E-9, 2-chloro-N,N-diethyl-4-{1′-[2-hydroxy-3-methyl-2-(trifluoromethyl)butanoyl]-4,4′-bipiperidin-1-yl}benzamide] | 30 | 96 | 114 | 49 | –
CCN(CC)C(=O)c1ccc(N2CCC(C3CCN(C(=O)c4c(F)cccc4F)CC3)CC2)cc1Cl [Example E-14, 2-chloro-4-{1′-[(2,6-difluorophenyl)carbonyl]-4,4′-bipiperidin-1-yl}-N,N-diethylbenzamide] | 289 | 78 | 1890 | 30 | –

Results, then the compound that gave them:

EC50 [1] [nM] | Emax [1] [%] | EC50 [2] [nM] | Emax [2] [%] | LXR alpha IP (nM) [2] | Structure (SMILES)
108 | 74 | 1920 | 32 | – | CC(C)C(O)(C(=O)N1CCC(C2CCN(c3ccc(C(=O)N4CCCC4)c(Cl)c3)CC2)CC1)C(F)(F)F (centres unmarked) [Example E-7, 2-({1′-[3-chloro-4-(pyrrolidin-1-ylcarbonyl)phenyl]-4,4′-bipiperidin-1-yl}carbonyl)-1,1,1-trifluoro-3-methylbutan-2-ol]
149 | 65 | 1190 | 29 | – | CC(C)C(O)(C(=O)N1CCC(C2CCN(c3ccc(C(=O)N4CCOCC4)c(Cl)c3)CC2)CC1)C(F)(F)F (centres unmarked) [Example E-8, 2-({1′-[3-chloro-4-(morpholin-4-ylcarbonyl)phenyl]-4,4′-bipiperidin-1-yl}carbonyl)-1,1,1-trifluoro-3-methylbutan-2-ol]
219 | 72 | 1260 | 32 | – | CC(C)C(O)(C(=O)N1CCC(C2CCN(c3ccc(C(=O)N4CCOC[C@H]4C)c(Cl)c3)CC2)CC1)C(F)(F)F (stereo partly drawn) [Example E-10, 2-{[1′-(3-chloro-4-{[(3R)-3-methylmorpholin-4-yl]carbonyl}phenyl)-4,4′-bipiperidin-1-yl]carbonyl}-1,1,1-trifluoro-3-methylbutan-2-ol]
156 | 33 | 1070 | 1 | – | CC(C)N(C(=O)c1ccc(N2CCC(C3CCN(C(=O)C(O)(C(C)C)C(F)(F)F)CC3)CC2)cc1Cl)C(C)C (centres unmarked) [Example E-11, 2-chloro-4-{1′-[2-hydroxy-3-methyl-2-(trifluoromethyl)butanoyl]-4,4′-bipiperidin-1-yl}-N,N-bis(1-methylethyl)benzamide]
128 | 84 | 1220 | 58 | – | O=C(c1c(F)cccc1F)N1CCC(C2CCN(c3ccc(C(=O)N4CCCC4CO)c(Cl)c3)CC2)CC1 (centres unmarked) [Example E-12, {1-[(2-chloro-4-{1′-[(2,6-difluorophenyl)carbonyl]-4,4′-bipiperidin-1-yl}phenyl)carbonyl]pyrrolidin-2-yl}methanol]
473 | 46 | 2150 | 15 | – | O=C(c1c(F)cccc1F)N1CCC(C2CCN(c3ccc(C(=O)N4CCCC4C(F)(F)F)c(Cl)c3)CC2)CC1 (centres unmarked) [Example E-13, 1-(3-chloro-4-{[2-(trifluoromethyl)pyrrolidin-1-yl]carbonyl}phenyl)-1′-[(2,6-difluorophenyl)carbonyl]-4,4′-bipiperidine]
283 | 54 | – | 10 | NO IP | CN(CC1CC1(C)C)C(=O)c1ccc(N2CCC(C3CCN(C(=O)c4c(F)cccc4F)CC3)CC2)cc1Cl (centres unmarked) [Example E-15, 2-chloro-4-{1′-[(2,6-difluorophenyl)carbonyl]-4,4′-bipiperidin-1-yl}-N-[(2,2-dimethylcyclopropyl)methyl]-N-methylbenzamide]
137 | 92 | 1700 | 38 | – | CN(Cc1ccon1)C(=O)c1ccc(N2CCC(C3CCN(C(=O)c4c(F)cccc4F)CC3)CC2)cc1Cl [Example E-16, 2-chloro-4-{1′-[(2,6-difluorophenyl)carbonyl]-4,4′-bipiperidin-1-yl}-N-(isoxazol-3-ylmethyl)-N-methylbenzamide]
105 | 130 | 760 | 33 | – | O=C(c1ccc(N2CCC(C3CCN(C(=O)[C@](O)(c4ccccc4)C(F)(F)C(F)(F)F)CC3)CC2)cc1Cl)N1CCCC1 [Example E-17]
73 | 99 | 1280 | 52 | – | CC(C)(C(=O)N1CCC(C2CCN(c3ccc(C(=O)N4CCCC4)c(Cl)c3)CC2)CC1)c1ccccc1 [Example E-18, 1-[3-chloro-4-(pyrrolidin-1-ylcarbonyl)phenyl]-1′-(2-methyl-2-phenylpropanoyl)-4,4′-bipiperidine]
197 | 78 | – | 25 | NO IP | O=C(c1ccc(N2CCC(C3CCN(C(=O)[C@](O)(c4ccccc4)C(F)(F)F)CC3)CC2)cc1Cl)N1CCCC1 [Example E-20]
95 | 62 | – | 13 | NO IP | O=C(c1ccc(N2CCC(C3CCN(C(=O)[C@](O)(c4ccccc4)C(F)(F)F)CC3)CC2)cc1Cl)N1CCCC1C(F)(F)F (stereo partly drawn) [Example E-21, (2R)-3-[1′-(3-chloro-4-{[2-(trifluoromethyl)pyrrolidin-1-yl]carbonyl}phenyl)-4,4′-bipiperidin-1-yl]-1,1,1-trifluoro-3-oxo-2-phenylpropan-2-ol]
